Experimental data taken from patent publication US11932606B2, “Anti-cancer/anti-fibrosis compounds” (THE REGENTS OF THE UNIVERSITY OF CALIFORNIA, priority 2017, dated 2024).
Read-outs that look alike come from different tables or passages of the source.

Columns and labels:
CDK8/cyclinC = CDK8/cyclinC (Homo sapiens (Human), UniProt P49336); assay: CDK8 LanthaScreen Eu kinase binding assay; conditions: read-out: IC50 against CDK8
Experimental: CDK8 Enzymatic Activity Inhibition: Determination of IC50 Values for Selected Compounds
The half maximal inhibitory concentration (IC50) with respect to CDK8 inhibition was determined for the compounds of the invention by using LanthaScreen™ Eu kinase binding assay from ThermoFisher Scientific's SelectScreen™ Biochemical Kinase Profiling Service (Waltham, MA). Compounds were screened in 1% DMSO (final) in the well. For 10 point titrations, 3-fold serial dilutions were conducted from the starting concentration.
The 2×CDK8/cyclinC/Eu-anti-His mixture is prepared in kinase buffer A (50 mM HEPES pH 7.5, 0.01% BRIJ-35, 10 mM MgCl2, 1 mM EGTA). The Bar-coded, low volume, white 384-well plate (Greiner Cat. #784207) were used for the assay. 160 nL of 100× test compound in 100% DMSO, 3.84 uL of kinase buffer A, 8 uL of 2×CDK8/cyclinC/Eu-anti-His mixture, and 4 uL of 4× tracer 236 were mixed and shaked for 30 seconds. Then the Kinase Reaction was incubated at room temperature for 60 minutes. After the 1 hour Kinase Reaction incubation, the plate was read on a fluorescence plate reader (Infinite F500, Tecan Systems Inc, USA), and data was analyzed using XLfit from IDBS. The dose response curve was curve fit to model number 205 (sigmoidal dose-response model).

MOLM-14 = assay: AML cell viability (CellTiter-Glo, day 7); format: cell-based; conditions: Homo sapiens
Experimental: (§1) MV-4-11 cell (ATCC CRL-9591), RS4;11 (ATCC CRL-1873) and TG-1 (ATCC CRL1608) were acquired from ATCC. MOLM14 (ACC777) was acquired from DSMZ. All cells were plated (96-well) in triplicate at 5000 cells per well for testing (n=3) with compound. On day 3, an equal volume for all wells was split-back with fresh media and compound. On day 7, the CellTiter-Glo Luminescent Cell Viability Assay (Promega) was performed to measure the response. For cell viability assay, two independent experiments have been done.

MV-4-11 = assay: AML cell viability (CellTiter-Glo, day 7); format: cell-based; conditions: Homo sapiens
Experimental: as §1

RS4;11 = assay: AML cell viability (CellTiter-Glo, day 7); format: cell-based; conditions: Homo sapiens
Experimental: as §1

TG-1 = assay: AML cell viability (CellTiter-Glo, day 7); format: cell-based
Experimental: as §1

SET-2 = assay: AML cell viability (CellTiter-Glo, day 7); format: cell-based; conditions: Homo sapiens
[1] = system: MOLM-14 AML cancer cell line; assay: Western blot of treated cells; format: cell-based; conditions: MOLM-14, 30 nM up to 3 μM, 24 hours and 48 hours
MV-4-11 xenograft = assay: MV-4-11 mouse xenograft model; format: in vivo; conditions: 50 mg/kg orally b.i.d., 21 days
Experimental: 40 CR female NCr nu/nu mice (Charles River Laboratories) were injected with 1×10^7 MV-4-11 cells in 50% matrigel s.c. in flank. Cell Injection Volume is 0.1 mL/mouse for MV-4-11 cells. Age of mice at start date is 8 to 12 weeks. Perform a pair match when tumors grow after two weeks and begin treatment. Compound 29 was given orally twice a day for 21 consecutive days. Body weight and tumor size were measured every three days. In the MV-4-11 xenograft model, mice were treated with compound 29 with 50 mg/kg for 21 days (orally, b.i.d). The tumor volume from control and vehicle group were measured, compared. […] Body weights of mice in both groups were measured and plotted.

MOLM-14 xenograft = assay: MOLM-14 mouse xenograft model; format: in vivo; conditions: 50 mg/kg orally b.i.d.
Experimental: 40 athymic nude mice (Taconic Biosciences) were injected with 5×10^6 MOLM-14 cells in 50% matrigel s.c. in flank. Cell Injection Volume is 0.2 ml/mouse for MOLM-14. Age of mice at start date is 12-14 weeks. Perform a pair match when tumors grows after two weeks and begin treatment. Compound 29 was dissolved in saline and was given orally twice a day on a schedule of five days on/two days off for three weeks. Body weight and tumor size were measured every other day when mice being treated. After the last administration, mice were euthanized for tumor collection. […] In the MOLM-14 xenograft model, mice were treated with compound 29 at 50 mg/kg for 21 days (orally, b.i.d). The tumor volume from control and vehicle group was measured. […] Body weights of mice in both groups were measured and plotted.

MOLM-14 xenograft tumors = assay: Western analysis / pharmacodynamics of MOLM-14 xenograft tumors; format: in vivo, mouse
Experimental: For tissue: Tissue was homogenized and protein was extracted using T-per Mammalian protein extraction reagent (78510, Thermo Fisher Scientific). In the pharmacodynamics study, mice bearing tumors were treated with vehicle, 10 mg/kg, 50 mg/kg and 100 mg/kg for 6 hrs. After 6 hrs of treatment, tumors were removed for further procedure.
Proteins were separated on SDS-PAGE and transferred to nitrocellulose membrane. Immunoblotting were performed using specific antibodies: phosphor-Stat1-pS727 (8826, Cell signaling), total-Stat1 (14994, Cell signaling), Phospho-Stat3 (Tyr705) (9131, Cell signaling), Stat3 (9139, Cell signaling), pSTAT5-pS726 (ab128896, abcam), stat5 (94205, cell signaling), YAP (14074, Cell signaling), CYR61(14479, Cell signaling), CTGF (ab6992, Abcam), c-Myc (13987, Cell signaling), Mcl-1 (94296, Cell signaling) and GAPDH (AM4300, Invitrogen). (FIG. 1A, FIG. 1B, FIG. 1C). MV-4-11 cancer cell line was treated with compound 29 at various concentrations (30 nM up to 10 μM) for 24 hours and 48 hours, respectively.
Tumors from the MOLM-14 xenograft study were collected and processed for western analysis. In the western results showing above, the level of p-STAT1 (Ser727) in the three mice samples from the treated group were much lower compared to that in the three mice samples from the control group.

[2] = tumors from MOLM-14 xenograft study, Western

Chain of CDK8/cyclinC (P49336 whole entry): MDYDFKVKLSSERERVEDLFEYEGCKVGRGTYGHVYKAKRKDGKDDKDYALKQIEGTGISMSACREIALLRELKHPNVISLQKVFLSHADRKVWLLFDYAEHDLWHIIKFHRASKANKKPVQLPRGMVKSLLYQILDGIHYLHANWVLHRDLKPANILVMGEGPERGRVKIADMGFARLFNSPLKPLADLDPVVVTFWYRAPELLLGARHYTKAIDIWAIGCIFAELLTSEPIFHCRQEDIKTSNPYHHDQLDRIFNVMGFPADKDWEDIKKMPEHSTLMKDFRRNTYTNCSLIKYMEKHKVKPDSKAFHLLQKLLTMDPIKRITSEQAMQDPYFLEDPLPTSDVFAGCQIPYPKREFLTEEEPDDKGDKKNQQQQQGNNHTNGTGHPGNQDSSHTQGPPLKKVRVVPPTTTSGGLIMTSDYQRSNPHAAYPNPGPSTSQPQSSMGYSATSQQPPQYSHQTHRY
Chain of CDK8/cyclinC (P24863 whole entry partner): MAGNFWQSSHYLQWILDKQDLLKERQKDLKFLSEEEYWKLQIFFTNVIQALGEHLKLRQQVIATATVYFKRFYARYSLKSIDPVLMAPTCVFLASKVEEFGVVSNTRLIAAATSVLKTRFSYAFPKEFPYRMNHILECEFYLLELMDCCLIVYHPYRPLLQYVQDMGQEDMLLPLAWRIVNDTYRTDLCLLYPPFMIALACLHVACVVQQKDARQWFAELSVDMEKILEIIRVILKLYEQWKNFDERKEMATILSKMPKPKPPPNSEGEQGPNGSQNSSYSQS

IC50 (CDK8/cyclinC): < 300 nM
IC50 (MOLM-14; 168 h, MOLM-14, day 7, read-out: Cell viability IC50): < 1000 nM
IC50 (MOLM-14; MOLM-14, text statement, read-out: potency in cell viability assay): < 1000 nM
IC50 (MV-4-11; MV4-11, 168 h, MV-4-11, day 7, read-out: Cell viability IC50): < 1000 nM
IC50 (MV-4-11; MV4-11, MV-4-11, text statement, read-out: potency in cell viability assay): < 1000 nM
IC50 (RS4;11; 168 h, RS4;11, day 7, read-out: Cell viability IC50): < 1000 nM
IC50 (RS4;11; RS4;11, text statement, read-out: potency in cell viability assay): < 1000 nM
weight loss (MOLM-14 xenograft; during treatment): < 5%
Structure (SMILES): Nc1nccc2c(Br)cc3cc(C(=O)[O-])ccc3c12.[Na+] [Compound 29, Sodium 1-amino-5-bromobenzo[h]isoquinoline-8-carboxylate]
IC50 (TG-1; TG1, 168 h, TG-1, day 7, read-out: Cell viability IC50): < 1000 nM
IC50 (TG-1; TG1, TG-1, text statement, read-out: potency in cell viability assay): < 1000 nM
IC50 (SET-2; 168 h, SET-2, day 7, read-out: Cell viability IC50): < 1000 nM
IC50 (SET-2; SET-2, text statement, read-out: potency in cell viability assay): < 1000 nM
level of p-STAT1(Ser727), p-STAT3(Tyr705), p-STAT5(Ser726) and YAP [1]: down regulate
Body weight (MV-4-11 xenograft): didn't suffer from weight loss
Tumor volume vs control group (MV-4-11 xenograft; last measurement point): only about half the size of tumors from the control group
Growth of tumors (tumor volume) (MOLM-14 xenograft; 21 days): greatly inhibited
p-STAT1 (Ser727) in tumors, pharmacodynamics study (MOLM-14 xenograft tumors; 10 mg/kg, 50 mg/kg and 100 mg/kg, 6 hrs): a dose response (10 mg/kg, 50 mg/kg and 100 mg/kg) of down regulation
level of p-STAT1 (Ser727) in tumors vs control group (MOLM-14 xenograft tumors; [2]): much lower
level of p-STAT5(Ser726) in tumors vs control group (MOLM-14 xenograft tumors; [2]): lower level
